Source: the supplement of paper PMC11208160

assay: recombinant UMI read abundance after kanamycin selection (control-corrected) (log10(CPM+1)); higher = more efficient recombination; extreme values may be limits of the assay; sequences stand for … in AGTGCAGAGAAAATCGGCCAGTTTTCTCTGCCTGCAGTCCGCATGCCGTGGGACCCCTTGGGTTCTAACCTGTTGCCTAGATTTATGCAGCGGACTGCCTTTCTCCCAAAGTGATAAACCGG…AGGTTGGTTTCACT; site = the 11-nt donor
Outline: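 In Escherichia coli, a pool of donor and donor-binding-loop pairs, each with a 12-nt UMI, was tested for the IS621 bridge recombinase. Plating was on IPTG (0.07 mM) plus kanamycin, or without selection, in two replicates. Recombinant UMIs were amplified by PCR across the donor–target junction and sequenced, and counts were reported as log10(CPM+1) after averaging and control-derived scaling.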
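Further: IS621 bridge recombinase in Escherichia coli cells against a fixed T5 target plasmid.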

“CAAGCACCATGGACCGGTTTTCCCGGTAATCCGTATTTGTG (site CAAGCGCCTCA)” and “CAAGCACCATGGACCGGTTTTCCCGGTAATCCGTATTTGTG (site CAAGCTCCTCA)” are within 0.2 log units of each other in “recombinant UMI read abundance (log10)” value: 0.00843 for the first, 0 for the second.

Going from “CAAGCAGCATGGACCGGTTTTCCCGGTAATCCGTATTTGCA (site CAAGCAGCTAG)” to “CAAGCAGCATGGACCGGTTTTCCCGGTAATCCGTATTTGCA (site CAAGCAGCTCG)”, the “recombinant UMI read abundance (log10)” value rises from 1.22 to 1.43.

Compared with “CAAGCAGCATGGACCGGTTTTCCCGGTAATCCGTATTTGCA (site CAAGCAGCTGG)”, “CAAGCAGCATGGACCGGTTTTCCCGGTAATCCGTATTTGCA (site CAAGCAGCTTG)” is higher in “recombinant UMI read abundance (log10)” value: 1.06 for the first, 2.81 for the second.

First: CAAGCAGCATGGACCGGTTTTCCCGGTAATCCGTATTTGGT (site CAAGCAGCTAA)
Second: CAAGCAGCATGGACCGGTTTTCCCGGTAATCCGTATTTGGT (site CAAGCAGCTAC)
The “recombinant UMI read abundance (log10)” value of the first is lower: 0.922 for the first, 1.73 for the second.

First: CAAGCAGCATGGACCGGTTTTCCCGGTAATCCGTATTTGGT (site CAAGCAGCTAG)
Second: CAAGCAGCATGGACCGGTTTTCCCGGTAATCCGTATTTGGT (site CAAGCAGCTAT)
The “recombinant UMI read abundance (log10)” value of the first is lower: 1.5 for the first, 1.85 for the second.

Going from “CAAGCGACATGGACCGGTTTTCCCGGTAATCCGTATTTGTG (site CAAGCGACTCA)” to “CAAGCGACATGGACCGGTTTTCCCGGTAATCCGTATTTGTG (site CAAGCGCCTCA)”, the “recombinant UMI read abundance (log10)” value falls from 1.19 to 0.00397.

First: CAAGCGACATGGACCGGTTTTCCCGGTAATCCGTATTTGTG (site CAAGCGGCTCA)
Second: CAAGCGACATGGACCGGTTTTCCCGGTAATCCGTATTTGTG (site CAAGCGTCTCA)
The “recombinant UMI read abundance (log10)” value of the first is higher: 1.2 for the first, 0.756 for the second.

“CAAGCTCCATGGACCGGTTTTCCCGGTAATCCGTATTTGTG (site CAAGCACCTCA)” and “CAAGCTCCATGGACCGGTTTTCCCGGTAATCCGTATTTGTG (site CAAGCCCCTCA)” are within 0.2 log units of each other in “recombinant UMI read abundance (log10)” value: 0.0218 for the first, 0.0101 for the second.

“CAAGCTCCATGGACCGGTTTTCCCGGTAATCCGTATTTGTG (site CAAGCGCCTCA)” and “CAAGCTCCATGGACCGGTTTTCCCGGTAATCCGTATTTGTG (site CAAGCTCCTCA)” are within 0.2 log units of each other in “recombinant UMI read abundance (log10)” value: 0.0257 for the first, 0.0252 for the second.

First: CAAGGCCCATGGACCGGTTTTCCCGGTAATCCGTATTTGGC (site CAAGGCCCTGC)
Second: CAAGGTGCATGGACCGGTTTTCCCGGTAATCCGTATTTGTT (site CAAGGTGCTAA)
The “recombinant UMI read abundance (log10)” value of the first is lower: 2.11 for the first, 2.59 for the second.

Going from “CAAGTAACATGGACCGGTTTTCCCGGTAATCCGTATTTGAC (site CAAGTAACTGT)” to “CAAGTAACATGGACCGGTTTTCCCGGTAATCCGTATTTGAC (site CTAGTATCTGT)”, the “recombinant UMI read abundance (log10)” value falls from 3.09 to 0.497.

Compared with “CAAGTATCATGGACCGGTTTTCCCGGTAATCCGTATTTGTC (site CAAGTATCTGA)”, “CAAGTATCATGGACCGGTTTTCCCGGTAATCCGTATTTGTC (site CTAGTATCTGT)” is lower in “recombinant UMI read abundance (log10)” value: 2.66 for the first, 0 for the second.

Going from “CAAGTCACATGGACCGGTTTTCCCGGTAATCCGTATTTGGC (site CAAGTCACTAC)” to “CAAGTCACATGGACCGGTTTTCCCGGTAATCCGTATTTGGC (site CAAGTCACTCC)”, the “recombinant UMI read abundance (log10)” value falls from 0.739 to 0.402.

Going from “CAAGTCACATGGACCGGTTTTCCCGGTAATCCGTATTTGGC (site CAAGTCACTGC)” to “CAAGTCACATGGACCGGTTTTCCCGGTAATCCGTATTTGGC (site CAAGTCACTTC)”, the “recombinant UMI read abundance (log10)” value falls from 2.99 to 0.596.

Going from “CAAGTCTCATGGACCGGTTTTCCCGGTAATCCGTATTTGAC (site CAAGTCTCTGT)” to “CAAGTCTCATGGACCGGTTTTCCCGGTAATCCGTATTTGAC (site CTAGTATCTGT)”, the “recombinant UMI read abundance (log10)” value falls from 3.08 to 0.00697.

Compared with “CAATCAACATGGACCGGTTTTCCCGGTAATCCGTATTTGTG (site CAATCAACTCA)”, “CAATCCCCATGGACCGGTTTTCCCGGTAATCCGTATTTGCT (site CAATACCCTAG)” is higher in “recombinant UMI read abundance (log10)” value: 0.737 for the first, 1.5 for the second.

Compared with “CAATCCCCATGGACCGGTTTTCCCGGTAATCCGTATTTGCT (site CAATCCCCTAG)”, “CAATCCCCATGGACCGGTTTTCCCGGTAATCCGTATTTGCT (site CAATGCCCTAG)” is lower in “recombinant UMI read abundance (log10)” value: 0.977 for the first, 0 for the second.

Going from “CAATCCCCATGGACCGGTTTTCCCGGTAATCCGTATTTGCT (site CAATTCCCTAG)” to “CAATCGCCATGGACCGGTTTTCCCGGTAATCCGTATTTGTG (site CAAACGCCTCA)”, the “recombinant UMI read abundance (log10)” value falls from 1.78 to 0.0185.

“CAATCGCCATGGACCGGTTTTCCCGGTAATCCGTATTTGTG (site CAACCGCCTCA)” and “CAATCGCCATGGACCGGTTTTCCCGGTAATCCGTATTTGTG (site CAAGCGCCTCA)” are within 0.2 log units of each other in “recombinant UMI read abundance (log10)” value: 0.0282 for the first, 0.0173 for the second.

Compared with “CAATCGCCATGGACCGGTTTTCCCGGTAATCCGTATTTGTG (site CAATCGCCTCA)”, “CAATCGTCATGGACCGGTTTTCCCGGTAATCCGTATTTGCT (site CAATCGTCTAG)” is higher in “recombinant UMI read abundance (log10)” value: 0.22 for the first, 2.84 for the second.

First: CAATCGTCATGGACCGGTTTTCCCGGTAATCCGTATTTGCT (site CGATCATCTAG)
Second: CAATCTACATGGACCGGTTTTCCCGGTAATCCGTATTTGTC (site CAATCTACTGA)
The “recombinant UMI read abundance (log10)” value of the first is lower: 0 for the first, 2.28 for the second.

Compared with “CAATGGCCATGGACCGGTTTTCCCGGTAATCCGTATTTGCA (site AAATGGCCTTG)”, “CAATGGCCATGGACCGGTTTTCCCGGTAATCCGTATTTGCA (site CAATGGCCTTG)” is higher in “recombinant UMI read abundance (log10)” value: 0 for the first, 0.253 for the second.

“CAATGGCCATGGACCGGTTTTCCCGGTAATCCGTATTTGCA (site GAATGGCCTTG)” and “CAATGGCCATGGACCGGTTTTCCCGGTAATCCGTATTTGCA (site TAATGGCCTTG)” are within 0.2 log units of each other in “recombinant UMI read abundance (log10)” value: 0 for the first, 0.198 for the second.

“CAATTACCATGGACCGGTTTTCCCGGTAATCCGTATTTGCT (site CAATTACCTAG)” and “CAATTACCATGGACCGGTTTTCCCGGTAATCCGTATTTGCT (site CAATTCCCTAG)” are the same in “recombinant UMI read abundance (log10)” value: 0 for the first, 0 for the second.

“CAATTACCATGGACCGGTTTTCCCGGTAATCCGTATTTGCT (site CAATTGCCTAG)” and “CAATTACCATGGACCGGTTTTCCCGGTAATCCGTATTTGCT (site CAATTTCCTAG)” are the same in “recombinant UMI read abundance (log10)” value: 0 for the first, 0 for the second.

Compared with “CAATTCCCATGGACCGGTTTTCCCGGTAATCCGTATTTGTT (site CAATTCCCTAA)”, “CAATTCCCATGGACCGGTTTTCCCGGTAATCCGTATTTGTT (site CAATTCCCTAC)” is lower in “recombinant UMI read abundance (log10)” value: 1.71 for the first, 0.942 for the second.

Going from “CAATTCCCATGGACCGGTTTTCCCGGTAATCCGTATTTGTT (site CAATTCCCTAG)” to “CAATTCCCATGGACCGGTTTTCCCGGTAATCCGTATTTGTT (site CAATTCCCTAT)”, the “recombinant UMI read abundance (log10)” value falls from 1.41 to 1.15.

First: CAATTGACATGGACCGGTTTTCCCGGTAATCCGTATTTGCG (site CAATTGACTCG)
Second: CAATTGGCATGGACCGGTTTTCCCGGTAATCCGTATTTGGA (site CAATTGGCTTC)
The “recombinant UMI read abundance (log10)” value of the first is higher: 2.58 for the first, 0.902 for the second.

Compared with “CAATTGGCATGGACCGGTTTTCCCGGTAATCCGTATTTGGA (site CACTTGGCTTC)”, “CAATTGGCATGGACCGGTTTTCCCGGTAATCCGTATTTGGA (site CAGTTGGCTTC)” is higher in “recombinant UMI read abundance (log10)” value: 0.0126 for the first, 0.585 for the second.

Going from “CAATTGGCATGGACCGGTTTTCCCGGTAATCCGTATTTGGA (site CATTTGGCTTC)” to “CACACAACATGGACCGGTTTTCCCGGTAATCCGTATTTGAA (site CACACAACTTT)”, the “recombinant UMI read abundance (log10)” value rises from 0.313 to 1.84.

“CACACGGCATGGACCGGTTTTCCCGGTAATCCGTATTTGAG (site CACACGGCTCT)” and “CACAGGGCATGGACCGGTTTTCCCGGTAATCCGTATTTGAG (site CACAGGGCTCT)” are within 0.2 log units of each other in “recombinant UMI read abundance (log10)” value: 1.83 for the first, 1.97 for the second.

Going from “CACATATCATGGACCGGTTTTCCCGGTAATCCGTATTTGTC (site CACATATCTGA)” to “CACATATCATGGACCGGTTTTCCCGGTAATCCGTATTTGTC (site CCCATATCTGA)”, the “recombinant UMI read abundance (log10)” value falls from 1.5 to 0.724.

Going from “CACATATCATGGACCGGTTTTCCCGGTAATCCGTATTTGTC (site CGCATATCTGA)” to “CACATATCATGGACCGGTTTTCCCGGTAATCCGTATTTGTC (site CTCATATCTGA)”, the “recombinant UMI read abundance (log10)” value falls from 0.92 to 0.

“CACATCCCATGGACCGGTTTTCCCGGTAATCCGTATTTGCA (site CACATCCCTTG)” and “CACCGTTCATGGACCGGTTTTCCCGGTAATCCGTATTTGTG (site CACCGTTCTCA)” are within 0.2 log units of each other in “recombinant UMI read abundance (log10)” value: 2 for the first, 1.9 for the second.

“CACCTGCCATGGACCGGTTTTCCCGGTAATCCGTATTTGAC (site CACCTGCCTGT)” and “CACGCCCCATGGACCGGTTTTCCCGGTAATCCGTATTTGTT (site CACGACCCTAA)” are within 0.2 log units of each other in “recombinant UMI read abundance (log10)” value: 0 for the first, 0.0224 for the second.

Going from “CACGCCCCATGGACCGGTTTTCCCGGTAATCCGTATTTGTT (site CACGCCCCTAA)” to “CACGCCCCATGGACCGGTTTTCCCGGTAATCCGTATTTGTT (site CACGGCCCTAA)”, the “recombinant UMI read abundance (log10)” value falls from 0.348 to 0.

Going from “CACGCCCCATGGACCGGTTTTCCCGGTAATCCGTATTTGTT (site CACGTCCCTAA)” to “CACGCCTCATGGACCGGTTTTCCCGGTAATCCGTATTTGCC (site CACACCTCTGG)”, the “recombinant UMI read abundance (log10)” value rises from 0.0223 to 2.73.

In the case of “CACGCCTCATGGACCGGTTTTCCCGGTAATCCGTATTTGCC (site CACCCCTCTGG)”, the “recombinant UMI read abundance (log10)” value is reported as 1.65.
